Measurements reported in patent US20240287063A1, “METHIONINE ADENOSYLTRANSFERASE 2A INHIBITOR” (NANJING CHIA TAI TIANQING PHARMACEUTICAL CO., LTD., priority 2021, published 2024).

Legend:
[1] = test system: HCT116 MTAP−/− subcutaneous xenograft tumors; assay: In vivo effect experiment of HCT116 MTAP−/− subcutaneous xenograft tumors in nude mice; conditions: 50 mg/kg daily intragastric
Protocol: Female Nu/Nu nude mice (6-8 weeks old, Beijing Vital River Laboratory Animal Technology Co., Ltd.) were raised in an SPF animal room at a temperature of 20° C.-25° C., relative humidity of 40%-70%, and light and dark lighting for 12 hours each; and animals can freely drink and eat. The animals were adaptively fed before experiment.
HCT116 MTAP^−/− cells (Horizon) were cultured in vitro for proliferation, cells in logarithmic growth phase were collected and resuspended in a serum-free RPMI-1640 medium, and the cell concentration was adjusted to 6.0×10^7 cells/mL; and 100 μL of the cell suspension was injected subcutaneously into the right anterior armpit of each nude mouse by using a 1 mL syringe, the status of the animals was observed regularly, and the growth of transplanted tumors was monitored regularly.
When the tumor volume reached 100-300 mm^3, animals with too large or too small tumor volume or uncertain tumor formation were eliminated, and tumor bearing mice with good health and similar tumor volume were selected and randomly grouped, 6 mice in each group; the administration group received daily intragastric administration (AG-270: 50 mg/kg, with a structure shown below; compound to be tested: 1-7.5 mg/kg); and the control group was intragastrically administrated with the same volume of blank solvent. In the administration period, the tumor diameter was measured twice a week, the tumor volume was calculated, the animals were weighed, and their weight was recorded.
A formula for calculating tumor volume (TV) is: Tv=½×a×b^2, wherein a represents long diameter of the tumor, and b represents short diameter of the tumor.
Experimental data is calculated and statistically processed by using Microsoft Office Excel 2007 software. Unless otherwise specified, the data were expressed as mean±standard error (Mean SEM), and t-test is used for comparison between two groups.
Growth curves of tumor volume in each group are shown in FIG. 1, results of SAM test in tumors of each group are shown in FIG. 2, and the mean tumor volume and SEM in each group are shown in Table 2 below: […]

MAT2A enzyme = target: T1, MAT2A enzyme (Homo sapiens, UniProt P31153); assay: Enzymatic testing method for MAT2A (Biomol Green, OD620); format: biochemical; conditions: score by IC50 for inhibiting MAT2A; read-out: MAT2A inhibition score
T1 construct: purchased BPS 71401
T1 sequence (P31153 whole entry): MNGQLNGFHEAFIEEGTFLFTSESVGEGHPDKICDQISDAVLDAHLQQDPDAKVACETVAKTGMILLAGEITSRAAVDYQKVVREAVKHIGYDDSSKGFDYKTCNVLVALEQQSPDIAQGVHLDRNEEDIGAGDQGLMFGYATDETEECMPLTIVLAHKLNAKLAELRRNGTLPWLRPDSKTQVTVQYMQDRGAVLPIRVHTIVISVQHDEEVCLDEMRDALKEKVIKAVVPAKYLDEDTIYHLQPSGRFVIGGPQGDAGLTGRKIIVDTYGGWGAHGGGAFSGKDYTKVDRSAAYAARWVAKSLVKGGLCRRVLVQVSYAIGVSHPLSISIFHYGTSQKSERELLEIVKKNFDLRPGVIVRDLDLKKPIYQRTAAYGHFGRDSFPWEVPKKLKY
Protocol: • a) A 5×MAT2A test buffer (250 mM Tris-HCl, pH 8.0; 250 mM KCl; 75 mM MgCl2; 0.025% BSA; 0.05% Brij35; 1.5 mM EDTA) was first prepared and partially diluted to 1× for later use; • b) Preparation and addition of MAT2A enzyme (BPS, 71401): the MAT2A enzyme was prepared into 3.674 ng/L by using the 1×MAT2A test buffer (1.67×, final concentration 2.20 ng/L), a BioTek (MultiFlo FX) automatic liquid separator was used, 15 μL of 1.67×MAT2A enzyme solution was added to compound test wells and negative control wells respectively, and 15 μL of 1×MAT2A test buffer was added to blank control wells; • c) Preparation and addition of a compound: a compound to be tested was diluted with DMSO from 10 mM stock solution to 100 μM, a positive drug AGI-24512 was diluted under the same conditions, and the diluted compound and positive drug were automatically sprayed into each well by using a Tecan compound titrator (D300e) according to preset concentration gradients, where the spray volume was little and negligible. The concentration gradient was initially 1 μM, the dilution was implemented by ½ log, and a total of 8 gradients were set. Centrifugation at 2500 rpm for 30 s and incubation at 25° C. for 30 min were performed; • d) Preparation of ATP: 10 mM ATP (Sigma, A7699) was diluted with 1×MAT2A test buffer to 700 μM for later use; • e) Preparation and addition of a substrate and ATP mixture: 5×MAT2A test buffer, 3 μL/well; 750 μM L-methionine (Adamas, 01100469), 2.5 μL/well; 700 μM ATP, 2.5 μL/well; and double distilled water, 2 μL/well. A total amount of required mixture was prepared according to the number of test wells, and 10 μL of the mixture was added to each well by using the BioTek (MultiFlo FX) automatic liquid separator, followed by centrifugation at 2500 rpm for 30 s and reaction at 25° C. for 150 min; • f) Addition of Biomol Green detection reagent: 50 μL of Biomol Green (Enzo, BML-AK111) was added to each well by using the BioTek (MultiFlo FX) automatic liquid separator, followed by centrifugation at 2500 rpm for 30 s and incubation at 25° C. for 20 minutes; • g) After the reaction, OD620 values were read by using a Perkin Elmer (Envision 2105) multifunctional plate reader.
A formula for calculating an inhibition rate was as follows: […]
Wherein, • % Inhibition: inhibition rate % • ODsample: OD620 value in a sample well; • ODmin: representing a mean OD620 value of blank control wells without the enzyme or compound to be tested; • ODmax: representing a mean OD620 value of negative control wells with the enzyme and without the compound.
Then a dose-effect curve log(inhibitor) vs. response-Variable slope was fitted by usingGraphPad Prism 5 software to obtain an IC50 value of compound for MAT2A enzyme inhibition.

| IC50 (MAT2A enzyme) | SMILES | other results |
| --- | --- | --- |
| – | COc1ccc(-c2c(Nc3ccccn3)[nH]c3c(C4=CCCCC4)c(-c4ccccc4)nn3c2=O)cc1 [AG-270, reference compound] | Tumor volume, mean volume ([1]; day 1 of administration): 154 mm^3; Tumor volume, mean volume ([1]; day 4 of administration): 189 mm^3; Tumor volume, mean volume ([1]; day 6 of administration): 219 mm^3; Tumor volume, mean volume ([1]; day 8 of administration): 244 mm^3; Tumor volume, mean volume ([1]; day 11 of administration): 303 mm^3; Tumor volume, mean volume ([1]; day 13 of administration): 369 mm^3; Tumor volume, mean volume ([1]; day 15 of administration): 419 mm^3 |
| > 1000 nM | O=c1c(-c2ccc3c(c2)OC(F)(F)O3)cn2ccc(C3CC3)nc2c1-c1ccc2c(c1)OC(F)(F)O2 [Example 30, 2-cyclopropyl-7,9-bis(2,2-difluoro-1,3-benzodioxol-5-yl)-8H-pyrido[1,2-a]pyrimidin-8-one] | – |
| > 1000 nM | Cn1nccc1-c1c2cc(-c3cn4ccc(C5CC5)cc4c(-c4ccc5nn(C)c(-c6ccnn6C)c5c4)c3=O)ccc2nn1C [Example 8, 8-cyclopropyl-1,3-bis[2-methyl-3-(2-methylpyrazol-3-yl)indazol-5-yl]quinolizin-2-one] | – |
| < 50 nM | O=C1NC2(CC2)Cn2nc3ccc(-c4cn5ccc(NCC(F)(F)F)nc5c(-c5ccc(OC(F)F)cc5)c4=O)cc3c21 [Example 14, 9′-{9-[4-(difluoromethoxy)phenyl]-8-oxo-2-[(2,2,2-trifluoroethyl)amino]pyrido[1,2-a]pyrimidin-7-yl}-2′,4′-dihydrospiro[cyclopropane-1,3′-pyrazino[1,2-b]indazol]-1′-one] | – |
| 50 to 200 nM | O=c1c(-c2ccc(OC(F)F)cc2)cn2ccc(-c3ccc(OC(F)F)cc3)cc2c1-c1ccc(OC(F)F)cc1 [Example 1, 1,3,8-tris(4-(difluoromethoxy)phenyl)-2H-quinolizin-2-one] | – |
| < 50 nM | Nc1nc2ccc(-c3cn4ccc(NCC(F)(F)F)nc4c(-c4ccc(OC(F)F)cc4)c3=O)cc2s1 [Example 18] | – |
| < 50 nM | O=C1NC2(CC2)Cn2nc3ccc(-c4cn5ccc(C6CC6)nc5c(-c5ccc(OC(F)F)cc5)c4=O)cc3c21 [Example 35, 9′-(2-cyclopropyl-9-(4-(difluoromethoxy)phenyl)-8-oxo-8H-pyrido[1,2-a]pyrimidin-7-yl)-4′H-spiro[cyclopropane-1,3′-pyrazino[1,2-b]indazol]-1′(2′H)-one] | – |
| < 50 nM | O=c1c(-c2ccc(OC(F)F)cc2)cn2ccc(Cl)cc2c1-c1ccc(OC(F)F)cc1 [Example 2, 8-chloro-1,3-bis(4-(difluoromethoxy)phenyl)-2H-quinolizin-2-one] | – |
| > 1000 nM | Cn1cc2cc(-c3cn4ccc(C5CC5)nc4c(-c4ccc5nn(C)cc5c4)c3=O)ccc2n1 [Example 29, 2-cyclopropyl-7,9-bis(2-methyl-2H-indazol-5-yl)-8H-pyrido[1,2-a]pyrimidin-8-one] | – |
| > 1000 nM | COc1cc(-c2cn3ccc(C4CC4)nc3c(-c3ccc4c(c3)OC(F)(F)O4)c2=O)ccc1OC(F)F [Example 34, 2-cyclopropyl-9-(2,2-difluoro-1,3-benzodioxol-5-yl)-7-[4-(difluoromethoxy)-3-methoxyphenyl]-8H-pyrido[1,2-a]pyrimidin-8-one] | – |
| 50 to 200 nM | COc1cc(-c2cn3ccc(C4CC4)nc3c(-c3ccc(OC(F)F)c(OC)c3)c2=O)ccc1OC(F)F [Example 37, 2-cyclopropyl-7,9-bis(4-(difluoromethoxy)-3-methoxyphenyl)-8H-pyrido[1,2-a]pyrimidin-8-one] | – |
| > 1000 nM | O=c1c(-c2ccc(OC(F)F)cc2)cn2c(C3CC3)ccnc2c1-c1ccc(OC(F)F)cc1 [Example 40, 4-cyclopropyl-7,9-bis[4-(difluoromethoxy)phenyl]-8H-pyrido[1,2-a]pyrimidin-8-one] | – |
| > 1000 nM | COc1ccc(-c2cn3ccc(C4CC4)nc3c(-c3ccc(OC)c(OC)c3)c2=O)cc1OC [Example 31, 2-cyclopropyl-7,9-bis(3,4-dimethoxyphenyl)-8H-pyrido[1,2-a]pyrimidin-8-one] | – |
| > 1000 nM | O=c1ccn2cc(-c3ccc(OC(F)F)cc3)c(=O)c(-c3ccc(OC(F)F)cc3)c2[nH]1 [Example 21, 7,9-bis[4-(difluoromethoxy)phenyl]-1H-pyrido[1,2-a]pyrimidin-2,8-dione] | – |
| > 1000 nM | Cn1nc2ccc(-c3cn4ccc(C5CC5)cc4c(-c4ccc5nn(C)c(N)c5c4)c3=O)cc2c1N [Example 5, 1,3-bis(3-amino-2-methyl-2H-indazol-5-yl)-8-cyclopropylquinolizin-2-one] | – |
| < 50 nM | N#CCn1cc2cc(-c3cn4ccc(NCC(F)(F)F)nc4c(-c4ccc(OC(F)F)cc4)c3=O)ccc2n1 [Example 19, 2-(5-{9-[4-(difluoromethoxy)phenyl]-8-oxo-2-[(2,2,2-trifluoroethyl)amino]pyrido[1,2-a]pyrimidin-7-yl}indazol-2-yl)acetonitrile] | – |
| > 1000 nM | COc1ccc(-c2cn3ccc(C4CC4)nc3c(-c3ccc4c(c3)OC(F)(F)O4)c2=O)cc1OC [Example 33, 2-cyclopropyl-9-(2,2-difluoro-1,3-benzodioxol-5-yl)-7-(3,4-dimethoxyphenyl)-8H-pyrido[1,2-a]pyrimidin-8-one] | – |
